Measurements: patent publication US20050074744A1, “Assays for evaluating anti-osteoarthritic activity” (priority 2003, published 2005)

Columns and labels:
collagenase 1 RNA = test: Quantitative real-time RT-PCR of collagenase 1 RNA in IL-1β-treated ACGs; assay type: cell-based, human; settings: ACG, 24 hours
Procedure: (§1) ACGs were constructed from the human chondrocyte strain Cc 05912 1°, which was isolated and propagated in Dubelcco's-Modified Eagle's Medium with. 10% fetal bovine serum (DMEM/10% FBS). After propagation, the cells were used to assemble ACGs on type II collagen coated Millipore Millicell-CM filters at a density of 2 million cells/cm^2, using the procedure described in U.S. Pat. No. 5,326,357. The ACGs were grown in defined ACG media (DMEM/2×ITS×(Invitrogen # 51500-056), 2% Human Serum Albumin) supplemented with 5 ng/ml TGF-β2 and 100 μg/ml ascorbic acid. After three weeks in culture, the levels of aggrecan and collagen type II expression in the ACGs peaked and leveled off. […]
(§2) After incubation with IL-1β for 24 hours, a group of the ACGs from Example 2 were harvested for quantitative real-time RT-PCR by snap freezing them in LN2. For quantitative real-time RT-PCR total RNA was isolated from the ACGs with TRIzol™ Reagent (Invitrogen # 15596-026) with subsequent cleanup using the Qiagen Rneasy™ Mini Kit (Qiagen # 74104). Contaminating DNA was removed from total RNA samples using the Ambion DNA-free kit (Ambion # 1906). cDNA synthesis was performed on 1 […] of each sample using the Amersham Ready-To-Go You-Prime First-Strand Beads™ (Amersham # 27-9264-01) primed with oligo dT. Reverse transcriptase activity was measured using the PicoGreen™ dsDNA quantitation Kit (Molecular Probes # P-7589). […]

collagenase 3 RNA = test: Quantitative real-time RT-PCR of collagenase 3 RNA in IL-1β-treated ACGs; assay type: cell-based, human; settings: ACG, 24 hours
Procedure: as §1, §2

stromelysin RNA = test: Quantitative real-time RT-PCR of stromelysin RNA in IL-1β-treated ACGs; assay type: cell-based, human; settings: ACG, 24 hours
Procedure: as §1, §2

aggrecanase 1 RNA = test: Quantitative real-time RT-PCR of aggrecanase 1 RNA in IL-1β-treated ACGs; assay type: cell-based, human; settings: ACG, 24 hours
Procedure: as §1, §2

aggrecanase 2 RNA = test: Quantitative real-time RT-PCR of aggrecanase 2 RNA in IL-1β-treated ACGs; assay type: cell-based, human; settings: ACG, 24 hours
Procedure: as §1, §2

[1] = test system: articular cartilage grafts (ACGs); test: Histological assessment (toluidine blue) of proteoglycan and collagen levels in ACGs; assay type: cell-based, human; settings: ACG; for presence or loss of proteoglycans, toluidine blue stain: 24 hours
Procedure: ACGs were constructed from the human chondrocyte strain Cc 05912 1°, which was isolated and propagated in Dubelcco's-Modified Eagle's Medium with. 10% fetal bovine serum (DMEM/10% FBS). After propagation, the cells were used to assemble ACGs on type II collagen coated Millipore Millicell-CM filters at a density of 2 million cells/cm^2, using the procedure described in U.S. Pat. No. 5,326,357. The ACGs were grown in defined ACG media (DMEM/2×ITS×(Invitrogen # 51500-056), 2% Human Serum Albumin) supplemented with 5 ng/ml TGF-β2 and 100 μg/ml ascorbic acid. After three weeks in culture, the levels of aggrecan and collagen type II expression in the ACGs peaked and leveled off.
After three weeks, the IL-1β (R&D Systems # 201-LB) and DBH incubations began. All of the preincubations and subsequent incubations were performed in DMEM. First all of the ACGs were washed twice with DMEM. Sample 1 ACGs were harvested for histology and gene expression analysis at the onset of the experiment. Next, 2 hour preincubations were performed on four groups, in triplicate for both histology and gene expression analysis. Sample 2 ACGs received 250 μl of DMEM to the inside and outside of the ACG. Sample 3 ACGs received the same. Sample 4 ACGs received 5 μm DBH in the same volumes as the other groups to the inside and outside of the Millicell filter containing the ACGs. Sample 5 ACGs received DMSO in the same volume as the DBH group as a vehicle control. The ACGs were then incubated for 2 hours. After the 2 hour preincubation with DBH, IL-1β incubation was added. Sample 2 received another 250 μl of DMEM in addition to the 250 μl that was added at the preincubation step. Sample 3 received 250 μl, inside and out, of DMEM with IL-1β at a final concentration of 2 ng/ml. Sample 4 also received IL-1β with the addition of more DBH to compensate for the volume change of DMEM to keep the concentration of 5 μm. Sample 5 also received IL-1β with an adjustment of the DMSO levels to compensate for the volume change of the DMEM.
After incubation with-lL-1β for 24 hours, a group of the ACGs from Example 2 were fixed in 10% neutral buffered formalin and embedded in paraffin. Sections were cut and stained with toluidine blue to assess the presence or loss of proteoglycans in the ACGs.

[2] = test system: chondrocyte monolayer cultures; settings: U.S. Pat. No. 5,591,740; cited from earlier work
[3] = test system: Hartley guinea pig model of osteoarthritis; settings: U.S. Pat. No. 5,591,740; cited from earlier work
[4] = 5 μm DBH (2 hour preincubation) + IL-1β 2 ng/ml

Row | % reduction of IL-1β-induced gene expression with DBH, collagenase 1 (collagenase 1 RNA; [4]) | % reduction of IL-1β-induced gene expression with DBH, collagenase 3 (collagenase 3 RNA; [4]) | % reduction of IL-1β-induced gene expression with DBH, aggrecanase 1 (aggrecanase 1 RNA; [4]) | % reduction of IL-1β-induced gene expression with DBH, aggrecanase 2 (aggrecanase 2 RNA; [4]) | Compound | % reduction of IL-1β-induced gene expression with DBH, stromelysin (stromelysin RNA; [4]) | presence or loss of proteoglycans, toluidine blue stain ([1]; IL-1β 2 ng/ml and 5 μm DBH) | loss of proteoglycans and collagen, histological staining ([1]; IL-1β and DBH) | IL-1 induced degradation of matrix proteins [2] | preexisting cartilage damage [3] | Fold Induction by IL-1β, collagenase 1 (collagenase 1 RNA; IL-1β 2 ng/ml, RNA by Q RT-PCR) | Fold Induction by IL-1β, collagenase 3 (collagenase 3 RNA; IL-1β 2 ng/ml, RNA by Q RT-PCR) | Fold Induction by IL-1β, stromelysin (stromelysin RNA; IL-1β 2 ng/ml, RNA by Q RT-PCR) | Fold Induction by IL-1β, aggrecanase 1 (aggrecanase 1 RNA; IL-1β 2 ng/ml, RNA by Q RT-PCR) | Fold Induction by IL-1β, aggrecanase 2 (aggrecanase 2 RNA; IL-1β 2 ng/ml, RNA by Q RT-PCR) | presence or loss of proteoglycans, toluidine blue stain ([1]; IL-1β 2 ng/ml alone) | loss of proteoglycans and collagen, histological staining ([1]; IL-1β alone)
1 | 66% | 55% | 65% | 56% | NC1=N/C(=C2/CCNC(=O)c3[nH]ccc32)C(=O)N1 [DBH, debromohymenialdesine] | 57% | decreased loss of proteoglycans | reduces the loss of proteoglycans and collagen | inhibits IL-1 induced degradation of matrix proteins | reduces preexisting cartilage damage | – | – | – | – | – | – | –
2 | – | – | – | – | IL-1β: inflammatory cytokine (R&D Systems # 201-LB) used to induce osteoarthritic cartilage damage in ACGs | – | – | – | – | – | 183 | 17 | 168 | 4 | 4 | marked loss of proteoglycans | causes the loss of proteoglycans and collagen
